Measurements as given in paper PMC6345968, “Structural basis for species-selective targeting of Hsp90 in a pathogenic fungus” (Nature Communications, 2019).
Like-named read-outs stand apart in the source and are kept apart here.

Experiments:
Hsp90 in HEPG2 lysate = details: HepG2 lysate
human Hsp90 NBD = human Hsp90 NBD (Homo sapiens, UniProt P08238); details: 0.1 nM Cy3-GdA, Human NBD-Hsp90 (10 nM); for FP signal (raw) / FP signal as fraction of no-compound (0 uM) control: Experiments 1-3
C. albicans Hsp90 NBD = biological target: T1, C. albicans Hsp90 NBD (Candida albicans, UniProt P46598); test: biochemical; assay type: binding; details: 0.1 nM Cy3-GdA, C. albicans NBD-Hsp90 (10 nM); for FP signal (raw) / FP signal as fraction of no-compound (0 uM) control: Experiments 1-3
T1 construct: C. albicans Hsp90 (E7-K218); made in house; host or cells: E. coli Rosetta2

Hsp90 in 3T3 lysate = test: FP competition in whole-cell lysate; assay type: binding, mouse; details: 3T3 lysate
Protocol: After vortexing, cell lysate was frozen at −80 °C for 2 h, followed by thawing on ice. The vortex-freeze-thaw step was repeated. […] Aliquots were thawed immediately prior to use.

[1] = Experiments 1-3, one value per experiment

T1 sequence (P46598 7-218): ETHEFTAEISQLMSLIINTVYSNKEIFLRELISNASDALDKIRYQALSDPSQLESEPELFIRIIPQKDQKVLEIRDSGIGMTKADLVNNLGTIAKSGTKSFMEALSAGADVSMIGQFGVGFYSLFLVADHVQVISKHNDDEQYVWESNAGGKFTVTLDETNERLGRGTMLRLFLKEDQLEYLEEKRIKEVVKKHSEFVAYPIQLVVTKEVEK
human Hsp90 NBD, sequence (P08238 1-223): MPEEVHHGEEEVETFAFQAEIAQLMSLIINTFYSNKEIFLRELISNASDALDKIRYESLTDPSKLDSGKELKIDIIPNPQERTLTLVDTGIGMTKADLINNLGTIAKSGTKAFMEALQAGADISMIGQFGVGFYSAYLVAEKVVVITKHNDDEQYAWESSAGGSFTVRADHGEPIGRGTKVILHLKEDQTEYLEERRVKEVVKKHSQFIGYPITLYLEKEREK

`COc1ccc(CON=C2C=CC=CC3OC3CC(C)OC(=O)c3c(O)cc(O)cc3C2)cc1` (mixture of isomers) [CMLD075] was tested, and the “FP signal (raw)” value (Hsp90 in HEPG2 lysate; 0.01 uM) was 200, the “FP signal, fraction of control” value (Hsp90 in HEPG2 lysate; 0.01 uM) was 0.9132 and the “FP signal (raw)” value (Hsp90 in HEPG2 lysate; 0.02 uM) was 199. The “FP signal, fraction of control” value (Hsp90 in HEPG2 lysate; 0.02 uM) was 0.9087, the “FP signal (raw)” value (Hsp90 in HEPG2 lysate; 0.078 uM) was 186 and the “FP signal, fraction of control” value (Hsp90 in HEPG2 lysate; 0.078 uM) was 0.8493. The “FP signal (raw)” value (Hsp90 in HEPG2 lysate; 0.313 uM) was 164, the “FP signal, fraction of control” value (Hsp90 in HEPG2 lysate; 0.313 uM) was 0.7489 and the “FP signal (raw)” value (Hsp90 in HEPG2 lysate; 0.625 uM) was 146. For the same compound, the “FP signal, fraction of control” value (Hsp90 in HEPG2 lysate; 0.625 uM) was 0.6667, the “FP signal (raw)” value (Hsp90 in HEPG2 lysate; 2.5 uM) was 88 and the “FP signal, fraction of control” value (Hsp90 in HEPG2 lysate; 2.5 uM) was 0.4018. For the same compound, the “FP signal (raw)” value (Hsp90 in HEPG2 lysate; 5 uM) was 53, the “FP signal, fraction of control” value (Hsp90 in HEPG2 lysate; 5 uM) was 0.242 and the “FP signal (raw)” value (Hsp90 in HEPG2 lysate; 10 uM) was 32. The “FP signal, fraction of control” value (Hsp90 in HEPG2 lysate; 10 uM) was 0.1461, the EC50 (Hsp90 in HEPG2 lysate; fit against log conc uM) was 1.8 µM and the EC50 (human Hsp90 NBD; [1]) was 1.25 µM. The “FP signal (raw)” value (human Hsp90 NBD; Cmpd 0.002 uM) was 100, the “FP signal as fraction of no-compound (0 uM) control” value (human Hsp90 NBD; Cmpd 0.002 uM) was 0.9615 and the “FP signal (raw)” value (human Hsp90 NBD; Cmpd 0.004 uM) was 101. The “FP signal as fraction of no-compound (0 uM) control” value (human Hsp90 NBD; Cmpd 0.004 uM) was 0.9712, the “FP signal (raw)” value (human Hsp90 NBD; Cmpd 0.008 uM) was 101 and the “FP signal as fraction of no-compound (0 uM) control” value (human Hsp90 NBD; Cmpd 0.008 uM) was 0.9712. The “FP signal (raw)” value (human Hsp90 NBD; Cmpd 0.016 uM) was 99, the “FP signal as fraction of no-compound (0 uM) control” value (human Hsp90 NBD; Cmpd 0.016 uM) was 0.9519 and the “FP signal (raw)” value (human Hsp90 NBD; Cmpd 0.063 uM) was 96. For the same compound, the “FP signal as fraction of no-compound (0 uM) control” value (human Hsp90 NBD; Cmpd 0.063 uM) was 0.9231, the “FP signal (raw)” value (human Hsp90 NBD; Cmpd 0.25 uM) was 85 and the “FP signal as fraction of no-compound (0 uM) control” value (human Hsp90 NBD; Cmpd 0.25 uM) was 0.8173. The “FP signal (raw)” value (human Hsp90 NBD; Cmpd 0.5 uM) was 85, the “FP signal as fraction of no-compound (0 uM) control” value (human Hsp90 NBD; Cmpd 0.5 uM) was 0.8173 and the “FP signal (raw)” value (human Hsp90 NBD; Cmpd 1 uM) was 59. For the same compound, the “FP signal as fraction of no-compound (0 uM) control” value (human Hsp90 NBD; Cmpd 1 uM) was 0.5673, the “FP signal (raw)” value (human Hsp90 NBD; Cmpd 2 uM) was 28 and the “FP signal as fraction of no-compound (0 uM) control” value (human Hsp90 NBD; Cmpd 2 uM) was 0.2692. For the same compound, the EC50 (C. albicans Hsp90 NBD; [1]) was 0.0478 µM, the “FP signal (raw)” value (C. albicans Hsp90 NBD; Cmpd 0.002 uM) was 81 and the “FP signal as fraction of no-compound (0 uM) control” value (C. albicans Hsp90 NBD; Cmpd 0.002 uM) was 0.8526. The “FP signal (raw)” value (C. albicans Hsp90 NBD; Cmpd 0.004 uM) was 80, the “FP signal as fraction of no-compound (0 uM) control” value (C. albicans Hsp90 NBD; Cmpd 0.004 uM) was 0.8421 and the “FP signal (raw)” value (C. albicans Hsp90 NBD; Cmpd 0.008 uM) was 78. The “FP signal as fraction of no-compound (0 uM) control” value (C. albicans Hsp90 NBD; Cmpd 0.008 uM) was 0.8211, the “FP signal (raw)” value (C. albicans Hsp90 NBD; Cmpd 0.016 uM) was 72 and the “FP signal as fraction of no-compound (0 uM) control” value (C. albicans Hsp90 NBD; Cmpd 0.016 uM) was 0.7579. The “FP signal (raw)” value (C. albicans Hsp90 NBD; Cmpd 0.063 uM) was 36, the “FP signal as fraction of no-compound (0 uM) control” value (C. albicans Hsp90 NBD; Cmpd 0.063 uM) was 0.3789 and the “FP signal (raw)” value (C. albicans Hsp90 NBD; Cmpd 0.25 uM) was 16. The “FP signal as fraction of no-compound (0 uM) control” value (C. albicans Hsp90 NBD; Cmpd 0.25 uM) was 0.1684, the “FP signal (raw)” value (C. albicans Hsp90 NBD; Cmpd 0.5 uM) was 10 and the “FP signal as fraction of no-compound (0 uM) control” value (C. albicans Hsp90 NBD; Cmpd 0.5 uM) was 0.1053. For the same compound, the “FP signal (raw)” value (C. albicans Hsp90 NBD; Cmpd 1 uM) was 7, the “FP signal as fraction of no-compound (0 uM) control” value (C. albicans Hsp90 NBD; Cmpd 1 uM) was 0.07368 and the “FP signal (raw)” value (C. albicans Hsp90 NBD; Cmpd 2 uM) was 8. The “FP signal as fraction of no-compound (0 uM) control” value (C. albicans Hsp90 NBD; Cmpd 2 uM) was 0.08421, the “FP signal (raw)” value (Hsp90 in 3T3 lysate; 0.01 uM) was 243 and the “FP signal, fraction of control” value (Hsp90 in 3T3 lysate; 0.01 uM) was 0.9681. The “FP signal (raw)” value (Hsp90 in 3T3 lysate; 0.02 uM) was 243, the “FP signal, fraction of control” value (Hsp90 in 3T3 lysate; 0.02 uM) was 0.9681 and the “FP signal (raw)” value (Hsp90 in 3T3 lysate; 0.078 uM) was 240. For the same compound, the “FP signal, fraction of control” value (Hsp90 in 3T3 lysate; 0.078 uM) was 0.9562, the “FP signal (raw)” value (Hsp90 in 3T3 lysate; 0.313 uM) was 223 and the “FP signal, fraction of control” value (Hsp90 in 3T3 lysate; 0.313 uM) was 0.8884.
